Structures can show the parent of a compound that is named as a salt.
Key:
Enterococcus = assay: Average MIC data, growth at serial concentrations; format: cell-based
Source text: (§1) Minimum Inhibitory Concentration Data
(§2) Average MIC data with growth details in various concentration of ceftriaxone and vancomycin combination of the present invention, ceftriaxone alone and vancomycin alone with following bacteria such as MSSA, Enterococcus, S. pneumoniae, Penicillin resistant streptococcus pneumoniae, MRSA.

Streptococcus pneumoniae = assay: Average MIC data, growth at serial concentrations; format: cell-based
Source text: as §1, §2

S. pneumoniae = assay: Average MIC data, growth at serial concentrations; format: cell-based
Source text: as §1, §2

S. aurens (MRSA) = assay: Average MIC data, growth at serial concentrations; format: cell-based
Source text: as §1, §2

S. aurens = assay: Average MIC data, growth at serial concentrations; format: cell-based
Source text: as §1, §2

[1] = test system: penicillin- and quinolone-resistant pneumococcal mutant strain; details: experimental rabbit meningitis; cited from earlier work

## CO/N=C(\C(=O)N[C@@H]1C(=O)N2C(C(=O)O)=C(CSc3nc(=O)c(=O)[nH]n3C)CS[C@H]12)c1csc(N)n1 [Ceftriaxone, (Z)-7-[2-(2-Aminothiazole-4-yl)-2-methoxyiminoacetamido]-3-[(2,5-dihydro-6-hydroxy-2-methyl-5-oxo-1,2,4-triazin-3-yl)thiomethyl]-3-cephem-4-carboxylic acid, disodium salt, Sesquaterhydrate]
Enterococcus; 0.125 μg/ml
  Growth at concentration (Average MIC data): Growth Found
Enterococcus; 0.25 μg/ml
  Growth at concentration (Average MIC data): Growth Found
Enterococcus; 0.5 μg/ml
  Growth at concentration (Average MIC data): Growth Found
Enterococcus; 1 μg/ml
  Growth at concentration (Average MIC data): No growth
Enterococcus; 2 μg/ml
  Growth at concentration (Average MIC data): No growth
Enterococcus; 4 μg/ml
  Growth at concentration (Average MIC data): No growth
Enterococcus; 8 μg/ml
  Growth at concentration (Average MIC data): No growth
Enterococcus; 16 μg/ml
  Growth at concentration (Average MIC data): No growth
Enterococcus; 32 μg/ml
  Growth at concentration (Average MIC data): No growth
Enterococcus; 64 μg/ml
  Growth at concentration (Average MIC data): No growth
Enterococcus; 128 μg/ml
  Growth at concentration (Average MIC data): No growth
Streptococcus pneumoniae; 0.125 μg/ml
  Growth at concentration (Average MIC data): Growth Found
Streptococcus pneumoniae; 0.25 μg/ml
  Growth at concentration (Average MIC data): Growth Found
Streptococcus pneumoniae; 0.5 μg/ml
  Growth at concentration (Average MIC data): Growth Found
Streptococcus pneumoniae; 1 μg/ml
  Growth at concentration (Average MIC data): Growth Found
Streptococcus pneumoniae; 2 μg/ml
  Growth at concentration (Average MIC data): Growth Found
Streptococcus pneumoniae; 4 μg/ml
  Growth at concentration (Average MIC data): No growth
Streptococcus pneumoniae; 8 μg/ml
  Growth at concentration (Average MIC data): No growth
Streptococcus pneumoniae; 16 μg/ml
  Growth at concentration (Average MIC data): No growth
Streptococcus pneumoniae; 32 μg/ml
  Growth at concentration (Average MIC data): No growth
Streptococcus pneumoniae; 64 μg/ml
  Growth at concentration (Average MIC data): No growth
Streptococcus pneumoniae; 128 μg/ml
  Growth at concentration (Average MIC data): No growth
S. pneumoniae; 0.125 μg/ml
  Growth at concentration (Average MIC data): Growth Found
S. pneumoniae; 0.25 μg/ml
  Growth at concentration (Average MIC data): Growth Found
S. pneumoniae; 0.5 μg/ml
  Growth at concentration (Average MIC data): No growth
S. pneumoniae; 1 μg/ml
  Growth at concentration (Average MIC data): No growth
S. pneumoniae; 2 μg/ml
  Growth at concentration (Average MIC data): No growth
S. pneumoniae; 4 μg/ml
  Growth at concentration (Average MIC data): No growth
S. pneumoniae; 8 μg/ml
  Growth at concentration (Average MIC data): No growth
S. pneumoniae; 16 μg/ml
  Growth at concentration (Average MIC data): No growth
S. pneumoniae; 32 μg/ml
  Growth at concentration (Average MIC data): No growth
S. pneumoniae; 64 μg/ml
  Growth at concentration (Average MIC data): No growth
S. pneumoniae; 128 μg/ml
  Growth at concentration (Average MIC data): No growth
S. aurens (MRSA); 0.125 μg/ml
  Growth at concentration (Average MIC data): Growth Found
S. aurens (MRSA); 0.25 μg/ml
  Growth at concentration (Average MIC data): Growth Found
S. aurens (MRSA); 0.5 μg/ml
  Growth at concentration (Average MIC data): Growth Found
S. aurens (MRSA); 1 μg/ml
  Growth at concentration (Average MIC data): Growth Found
S. aurens (MRSA); 2 μg/ml
  Growth at concentration (Average MIC data): Growth Found
S. aurens (MRSA); 4 μg/ml
  Growth at concentration (Average MIC data): Growth Found
S. aurens (MRSA); 8 μg/ml
  Growth at concentration (Average MIC data): Growth Found
S. aurens (MRSA); 16 μg/ml
  Growth at concentration (Average MIC data): Growth Found
S. aurens (MRSA); 32 μg/ml
  Growth at concentration (Average MIC data): Growth Found
S. aurens (MRSA); 64 μg/ml
  Growth at concentration (Average MIC data): No growth
S. aurens (MRSA); 128 μg/ml
  Growth at concentration (Average MIC data): No growth
S. aurens; 0.125 μg/ml
  Growth at concentration (Average MIC data): Growth Found
S. aurens; 0.25 μg/ml
  Growth at concentration (Average MIC data): Growth Found
S. aurens; 0.5 μg/ml
  Growth at concentration (Average MIC data): Growth Found
S. aurens; 1 μg/ml
  Growth at concentration (Average MIC data): No growth
S. aurens; 2 μg/ml
  Growth at concentration (Average MIC data): No growth
S. aurens; 4 μg/ml
  Growth at concentration (Average MIC data): No growth
S. aurens; 8 μg/ml
  Growth at concentration (Average MIC data): No growth
S. aurens; 16 μg/ml
  Growth at concentration (Average MIC data): No growth
S. aurens; 32 μg/ml
  Growth at concentration (Average MIC data): No growth
S. aurens; 64 μg/ml
  Growth at concentration (Average MIC data): No growth
S. aurens; 128 μg/ml
  Growth at concentration (Average MIC data): No growth

## CN[C@H](CC(C)C)C(=O)N[C@H]1C(=O)N[C@@H](CC(N)=O)C(=O)N[C@H]2C(=O)N[C@H]3C(=O)N[C@H](C(=O)N[C@H](C(=O)O)c4cc(O)cc(O)c4-c4cc3ccc4O)[C@H](O)c3ccc(c(Cl)c3)Oc3cc2cc(c3O[C@@H]2O[C@H](CO)[C@@H](O)[C@H](O)[C@H]2O[C@H]2C[C@](C)(N)[C@H](O)[C@H](C)O2)Oc2ccc(cc2Cl)[C@H]1O [Vancomycin]
Enterococcus; 0.125 μg/ml
  Growth at concentration (Average MIC data): Growth Found
Enterococcus; 0.25 μg/ml
  Growth at concentration (Average MIC data): Growth Found
Enterococcus; 0.5 μg/ml
  Growth at concentration (Average MIC data): No growth
Enterococcus; 1 μg/ml
  Growth at concentration (Average MIC data): No growth
Enterococcus; 2 μg/ml
  Growth at concentration (Average MIC data): No growth
Enterococcus; 4 μg/ml
  Growth at concentration (Average MIC data): No growth
Enterococcus; 8 μg/ml
  Growth at concentration (Average MIC data): No growth
Enterococcus; 16 μg/ml
  Growth at concentration (Average MIC data): No growth
Enterococcus; 32 μg/ml
  Growth at concentration (Average MIC data): No growth
Enterococcus; 64 μg/ml
  Growth at concentration (Average MIC data): No growth
Enterococcus; 128 μg/ml
  Growth at concentration (Average MIC data): No growth
Streptococcus pneumoniae; 0.125 μg/ml
  Growth at concentration (Average MIC data): Growth Found
Streptococcus pneumoniae; 0.25 μg/ml
  Growth at concentration (Average MIC data): Growth Found
Streptococcus pneumoniae; 0.5 μg/ml
  Growth at concentration (Average MIC data): Growth Found
Streptococcus pneumoniae; 1 μg/ml
  Growth at concentration (Average MIC data): No growth
Streptococcus pneumoniae; 2 μg/ml
  Growth at concentration (Average MIC data): No growth
Streptococcus pneumoniae; 4 μg/ml
  Growth at concentration (Average MIC data): No growth
Streptococcus pneumoniae; 8 μg/ml
  Growth at concentration (Average MIC data): No growth
Streptococcus pneumoniae; 16 μg/ml
  Growth at concentration (Average MIC data): No growth
Streptococcus pneumoniae; 32 μg/ml
  Growth at concentration (Average MIC data): No growth
Streptococcus pneumoniae; 64 μg/ml
  Growth at concentration (Average MIC data): No growth
Streptococcus pneumoniae; 128 μg/ml
  Growth at concentration (Average MIC data): No growth
S. pneumoniae; 0.125 μg/ml
  Growth at concentration (Average MIC data): Growth Found
S. pneumoniae; 0.25 μg/ml
  Growth at concentration (Average MIC data): Growth Found
S. pneumoniae; 0.5 μg/ml
  Growth at concentration (Average MIC data): No growth
S. pneumoniae; 1 μg/ml
  Growth at concentration (Average MIC data): No growth
S. pneumoniae; 2 μg/ml
  Growth at concentration (Average MIC data): No growth
S. pneumoniae; 4 μg/ml
  Growth at concentration (Average MIC data): No growth
S. pneumoniae; 8 μg/ml
  Growth at concentration (Average MIC data): No growth
S. pneumoniae; 16 μg/ml
  Growth at concentration (Average MIC data): No growth
S. pneumoniae; 32 μg/ml
  Growth at concentration (Average MIC data): No growth
S. pneumoniae; 64 μg/ml
  Growth at concentration (Average MIC data): No growth
S. pneumoniae; 128 μg/ml
  Growth at concentration (Average MIC data): No growth
S. aurens (MRSA); 0.125 μg/ml
  Growth at concentration (Average MIC data): Growth Found
S. aurens (MRSA); 0.25 μg/ml
  Growth at concentration (Average MIC data): Growth Found
S. aurens (MRSA); 0.5 μg/ml
  Growth at concentration (Average MIC data): Growth Found
S. aurens (MRSA); 1 μg/ml
  Growth at concentration (Average MIC data): Growth Found
S. aurens (MRSA); 2 μg/ml
  Growth at concentration (Average MIC data): Growth Found
S. aurens (MRSA); 4 μg/ml
  Growth at concentration (Average MIC data): No growth
S. aurens (MRSA); 8 μg/ml
  Growth at concentration (Average MIC data): No growth
S. aurens (MRSA); 16 μg/ml
  Growth at concentration (Average MIC data): No growth
S. aurens (MRSA); 32 μg/ml
  Growth at concentration (Average MIC data): No growth
S. aurens (MRSA); 64 μg/ml
  Growth at concentration (Average MIC data): No growth
S. aurens (MRSA); 128 μg/ml
  Growth at concentration (Average MIC data): No growth
S. aurens; 0.125 μg/ml
  Growth at concentration (Average MIC data): Growth Found
S. aurens; 0.25 μg/ml
  Growth at concentration (Average MIC data): Growth Found
S. aurens; 0.5 μg/ml
  Growth at concentration (Average MIC data): Growth Found
S. aurens; 1 μg/ml
  Growth at concentration (Average MIC data): Growth Found
S. aurens; 2 μg/ml
  Growth at concentration (Average MIC data): Growth Found
S. aurens; 4 μg/ml
  Growth at concentration (Average MIC data): No growth
S. aurens; 8 μg/ml
  Growth at concentration (Average MIC data): No growth
S. aurens; 16 μg/ml
  Growth at concentration (Average MIC data): No growth
S. aurens; 32 μg/ml
  Growth at concentration (Average MIC data): No growth
S. aurens; 64 μg/ml
  Growth at concentration (Average MIC data): No growth
S. aurens; 128 μg/ml
  Growth at concentration (Average MIC data): No growth

## CO/N=C(\C(=O)N[C@@H]1C(=O)N2C(C(=O)[O-])=C(C[N+]3(C)CCCC3)CS[C@H]12)c1csc(N)n1 [cefepime]
[1]
  bactericidal activity: −0.61+/−0.24 Delta log(10) cfu/mL×h

Reference: patent US8778873B2, “Parenteral combination therapy for infective conditions with drug resistant bacterium” (Venus Remedies Limited, priority 2005, dated 2014)
